The values below come from patent US12577231B2, “Androgen receptor PROTACS” (GlaxoSmithKline Intellectual Property Development Limited, priority 2023, dated 2026).

The target in assay [1] is T1, Androgen Receptor, VCaP (AR wild type and amplified) (Homo sapiens, UniProt P10275).
T1 construct: endogenous in cells; host or cells: VCaP
T1 sequence (P10275 1-920): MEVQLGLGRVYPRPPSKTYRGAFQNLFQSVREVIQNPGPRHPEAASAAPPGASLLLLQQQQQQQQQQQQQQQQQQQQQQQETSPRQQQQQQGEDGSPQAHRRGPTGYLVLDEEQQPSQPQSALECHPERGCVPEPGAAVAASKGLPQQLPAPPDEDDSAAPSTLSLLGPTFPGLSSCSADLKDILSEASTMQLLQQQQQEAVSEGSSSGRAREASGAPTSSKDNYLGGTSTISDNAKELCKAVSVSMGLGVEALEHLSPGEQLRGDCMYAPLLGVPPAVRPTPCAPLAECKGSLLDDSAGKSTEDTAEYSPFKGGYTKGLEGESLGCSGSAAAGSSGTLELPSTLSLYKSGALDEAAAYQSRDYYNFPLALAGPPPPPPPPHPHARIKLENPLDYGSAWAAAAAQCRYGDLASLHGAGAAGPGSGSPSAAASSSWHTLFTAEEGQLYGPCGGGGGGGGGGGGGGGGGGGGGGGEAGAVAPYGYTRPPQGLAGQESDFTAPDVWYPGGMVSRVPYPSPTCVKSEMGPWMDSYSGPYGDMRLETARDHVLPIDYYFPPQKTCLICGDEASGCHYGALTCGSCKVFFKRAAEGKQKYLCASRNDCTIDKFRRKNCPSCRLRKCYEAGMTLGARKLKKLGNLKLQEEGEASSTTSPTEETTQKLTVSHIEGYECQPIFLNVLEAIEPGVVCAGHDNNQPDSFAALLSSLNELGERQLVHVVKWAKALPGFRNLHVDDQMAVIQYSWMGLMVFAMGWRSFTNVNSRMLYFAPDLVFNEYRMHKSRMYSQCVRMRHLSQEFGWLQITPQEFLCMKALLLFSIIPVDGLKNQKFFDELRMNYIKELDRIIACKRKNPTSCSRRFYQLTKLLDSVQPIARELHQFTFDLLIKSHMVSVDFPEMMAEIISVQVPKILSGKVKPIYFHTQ
As to the kind of experiment: Androgen Receptor Degradation-Imaging Assay, VCaP cell line. Conditions: 16 hours treatment, maximum observed degradation. The class given is cell-based. The method, then:
(§1) Degradation of Androgen Receptor (AR) protein in human prostate cancer cell lines (MDA-PCa-2b (AR T878A/L702H), LNCaP (AR T878A), VCaP (AR wild type and amplified) 22RV1 (AR H875Y) and PC3 (AR negative control)) treated with AR PROTACs was quantified using immunofluorescence. Prostate cancer cells were plated (MDA-PCa-2b, and VCaP 16,000 cells/well; LNCaP and 22RV1 32,000 cells/well, and PC3 8,000 cells/well) in an optical bottom 96-well cell culture plate and allowed to attach overnight. The prostate cancer cell lines were treated for 16 hours with a 10-point 3-fold dilution series (dose range=0.02 nM to 333 nM). PC3 is included as an AR negative control and not treated with compound. Cells are fixed and permeabilized with 4% formaldehyde, blocked with 10% goat serum in immunofluorescence (IF) buffer (130 mM NaCl, 7 mM Na2HPO4, 3.5 mM NaH2PO4, 7.7 mM NaN3, 0.1% BSA, 0.2% Triton X, 0.05% Tween 20) prior to overnight incubation with rabbit antibody specific for C terminus of AR (commercially available from RevMaB Biosciences). Following washes with IF buffer, cells were incubated with fluorescent secondary antibody (Goat anti-rabbit Alexa 647; commercially available from Invitrogen) and Hoechst nuclear stain (commercially available from Themo Scientific) prior to quantification of nuclear AR levels via Opera Phenix high-content fluorescent imager using a 40× water objective. Image analysis was performed with Harmony software.
(§2) The averaged nuclear Alexa 647 median fluorescence intensity (MFI) of PC3 cells is subtracted from the nuclear Alexa 647 MFI of PROTAC treated and DMSO control treated cells. % AR remaining is calculated for PROTAC treatments as a percent of the DMSO control (MFI PROTAC treated/MFI DMSO control treated)*100). DC50 and the Dmax values, were obtained from these normalised values fitted with a 4-parameter sigmoidal response curve (Xlfit software). The DC50 is the interpolated concentration of PROTAC corresponding to 50% of the protein being degraded, and the Dmax parameter is the maximum experimentally observed degradation.

Assay [2] has as its target T2, Androgen Receptor, MDA-PCa-2b (AR T878A/L702H) (Homo sapiens, UniProt P10275, L702H/T878A).
T2 construct: host or cells: MDA-PCa-2b
T2 sequence (P10275 1-920 L702H/T878A): T1 sequence (P10275 1-920) with L702H, T878A
In words: Androgen Receptor Degradation-Imaging Assay, MDA-PCa-2b cell line. The class given is cell-based. Particulars: 16 hours treatment, maximum observed degradation. The method, then:
as §1, §2

Numbering of substitutions follows the chain as printed. A value given as a limit tells only on which side of the number the result lay.

By Dmax is commonly meant the greatest extent of degradation seen. Low values mean shallow degradation, high ones deep degradation. In the case of `CC1(C)[C@H](NC(=O)c2ccc(N3CCC(CN4CCC(n5ccc6c(N7CCC(=O)NC7=O)c(F)ccc65)CC4)CC3)c(F)c2)C(C)(C)[C@H]1Oc1ccc(C#N)c2ncccc12` [Example 51, N-((1r,3r)-3-((8-Cyanoquinolin-5-yl)oxy)-2,2,4,4-tetramethylcyclobutyl)-4-(4-((4-(4-(2,4-dioxotetrahydropyrimidin-1(2H)-yl)-5-fluoro-1H-indol-1-yl)piperidin-1-yl)methyl)piperidin-1-yl)-3-fluorobenzamide], the Dmax in assay [1] and in assay [2] was ≥ 80% throughout.

As for `COc1cc(O[C@H]2C(C)(C)[C@H](NC(=O)c3ccc(N4CCC(CN5CCC(n6ccc7c(N8CCC(=O)NC8=O)cccc76)CC5)CC4)cc3)C2(C)C)ccc1C#N` [Example 16, N-((1r,3r)-3-(4-Cyano-3-methoxyphenoxy)-2,2,4,4-tetramethylcyclobutyl)-4-(4-((4-(4-(2,4-dioxotetrahydropyrimidin-1(2H)-yl)-1H-indol-1-yl)piperidin-1-yl)methyl)piperidin-1-yl)benzamide], the Dmax in assay [1] and in assay [2] was ≥ 80% in each case.

Turning to `CC1(C)[C@H](NC(=O)c2cc(F)c(N3CCC(CN4CCC(n5ncc6c(N7CCC(=O)NC7=O)cccc65)CC4)CC3)c(F)c2)C(C)(C)[C@H]1Oc1ccc(C#N)c2ncccc12` [Example 30, N-((1r,3r)-3-((8-Cyanoquinolin-5-yl)oxy)-2,2,4,4-tetramethylcyclobutyl)-4-(4-((4-(4-(2,4-dioxotetrahydropyrimidin-1(2H)-yl)-1H-indazol-1-yl)piperidin-1-yl)methyl)piperidin-1-yl)-3,5-difluorobenzamide], the Dmax in assay [1] and in assay [2] was ≥ 80% each time.

As for `CC1(C)[C@H](NC(=O)c2ccc(N3CCC(CN4CCC(n5ccc6c(N7CCC(=O)NC7=O)ncnc65)CC4)CC3)c(F)c2)C(C)(C)[C@H]1Oc1ccc(C#N)c2ncccc12` [Example 47, N-((1r,3r)-3-((8-Cyanoquinolin-5-yl)oxy)-2,2,4,4-tetramethylcyclobutyl)-4-(4-((4-(4-(2,4-dioxotetrahydropyrimidin-1(2H)-yl)-7H-pyrrolo[2,3-d]pyrimidin-7-yl)piperidin-1-yl)methyl)piperidin-1-yl)-3-fluorobenzamide], the Dmax in assay [1] and in assay [2] was ≥ 80% in each case.

In the case of `CC1(C)[C@H](NC(=O)c2ccc(N3CCC(CN4CCC(n5ncc6c(N7CCC(=O)NC7=O)c(F)ccc65)CC4)CC3)c(F)c2)C(C)(C)[C@H]1Oc1ccc(C#N)c2ncccc12` [Example 50, N-((1r,3r)-3-((8-Cyanoquinolin-5-yl)oxy)-2,2,4,4-tetramethylcyclobutyl)-4-(4-((4-(4-(2,4-dioxotetrahydropyrimidin-1(2H)-yl)-5-fluoro-1H-indazol-1-yl)piperidin-1-yl)methyl)piperidin-1-yl)-3-fluorobenzamide], the Dmax in assay [1] and in assay [2] was ≥ 80% in each case.

For `CC1(C)[C@H](NC(=O)c2ccc(N3CCC4(CC3)CC(N3CCC(n5ncc6c(N7CCC(=O)NC7=O)cccc65)CC3)C4)c(F)c2)C(C)(C)[C@H]1Oc1ccc(C#N)c2ncccc12` [Example 49, N-((1r,3r)-3-((8-Cyanoquinolin-5-yl)oxy)-2,2,4,4-tetramethylcyclobutyl)-4-(2-(4-(4-(2,4-dioxotetrahydropyrimidin-1(2H)-yl)-1H-indazol-1-yl)piperidin-1-yl)-7-azaspiro[3.5]nonan-7-yl)-3-fluorobenzamide], the Dmax in assay [1] and in assay [2] was ≥ 80% each time.

In the case of `CC1(C)[C@H](NC(=O)c2ccc(N3CCC(CN4CCC(n5ncc6c(N7CCC(=O)NC7=O)nccc65)CC4)CC3)c(F)c2)C(C)(C)[C@H]1Oc1ccc(C#N)c2ncccc12` [Example 39, N-((1r,3r)-3-((8-Cyanoquinolin-5-yl)oxy)-2,2,4,4-tetramethylcyclobutyl)-4-(4-((4-(4-(2,4-dioxotetrahydropyrimidin-1(2H)-yl)-1H-pyrazolo[4,3-c]pyridin-1-yl)piperidin-1-yl)methyl)piperidin-1-yl)-3-fluorobenzamide], the Dmax in assay [1] and in assay [2] was ≥ 80% each time.

`CC1(C)[C@H](NC(=O)c2ccc(N3CCC(CN4CCC(n5ccc6c(N7CCC(=O)NC7=O)cc(F)cc65)CC4)CC3)c(F)c2)C(C)(C)[C@H]1Oc1ccc(C#N)c2ncccc12` [Example 32, N-((1r,3r)-3-((8-Cyanoquinolin-5-yl)oxy)-2,2,4,4-tetramethylcyclobutyl)-4-(4-((4-(4-(2,4-dioxotetrahydropyrimidin-1(2H)-yl)-6-fluoro-1H-indol-1-yl)piperidin-1-yl)methyl)piperidin-1-yl)-3-fluorobenzamide]: the Dmax in assay [1] and in assay [2] was ≥ 80% each time.
